# Source: ChEMBL document CHEMBL4706483, “Discovery of novel phosphatidylcholine-specific phospholipase C drug-like inhibitors as potential anticancer agents” (Eur J Med Chem, 2020)
# Calls of active or inactive are those of the source. The calls are words filed in the database; no cut-off is given here.
# Molecular target: Phospholipase C (Bacillus cereus) (UniProt P09598)
# Experiment: Inhibition of recombinant Bacillus cereus N-terminal His6-tagged full length PC-PLC 3C Protease cleavage site expressed in Escherichia coli BL21(DE3) cells at 10 uM using phosphatidylcholine as substrate by amplex red assay relative to control
# Phospholipase C (Bacillus cereus), sequence (P09598 whole entry, looked up): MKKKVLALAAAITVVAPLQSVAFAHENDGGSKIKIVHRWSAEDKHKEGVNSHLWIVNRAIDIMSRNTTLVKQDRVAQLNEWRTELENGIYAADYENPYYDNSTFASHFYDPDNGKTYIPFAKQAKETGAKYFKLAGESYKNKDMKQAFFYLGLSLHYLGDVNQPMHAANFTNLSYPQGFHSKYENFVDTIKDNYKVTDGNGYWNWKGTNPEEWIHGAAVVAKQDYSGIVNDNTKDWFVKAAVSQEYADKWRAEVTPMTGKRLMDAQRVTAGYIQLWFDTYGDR
row,Structure (SMILES),inhibition
1,O=C(O)c1cccc(NS(=O)(=O)c2ccc(C3CCCCC3)cc2)c1,25%
2,O=C(O)C1Cc2c([nH]c3ccccc23)C(c2ccc(O)c(O)c2)N1 (stereo not drawn),75%
3,CSc1ccc(CNc2ccc(N3CCOCC3)c(C(=O)O)c2)cc1,inactive
4,Cc1[nH]c2ccc(C(=O)O)cc2c1CC(=O)O,60%
5,O=C(O)c1cc(NCc2ccccc2)ccc1N1CCOCC1,67%
6,O=C(O)c1cc(NCc2cccc(Br)c2)ccc1N1CCOCC1,80%
7,COc1cc(C2NC(C(=O)O)Cc3c2[nH]c2ccccc32)cc(OC)c1O (stereo not drawn),60%
8,O=C(O)c1cc(NCc2ccc(Cl)cc2Cl)ccc1N1CCOCC1,65%
9,CN(C)c1ccc(C2NC(C(=O)O)Cc3c2[nH]c2ccccc32)cc1 (stereo not drawn),43%
10,O=C(O)c1cc(NCc2ccccc2Cl)ccc1N1CCOCC1,89%
11,CN1CCN(c2ccc(NCc3cccc(Br)c3)cc2C(=O)O)CC1,inactive
12,O=C(O)c1ccccc1N1CCOCC1,inactive

# Now from value to compound:
row,inhibition,Structure (SMILES)
1,89%,O=C(O)c1cc(NCc2cccc(Cl)c2)ccc1N1CCOCC1
2,inactive,O=C(O)c1cc(NCc2ccccc2C(F)(F)F)ccc1N1CCOCC1
3,37%,O=C(O)C1Cc2c([nH]c3ccccc23)C(c2ccc(C(F)(F)F)cc2)N1 (stereo not drawn)
4,65%,Cc1[nH]c2ccc(Cl)cc2c1CC(=O)O
5,47%,COc1cccc(C(=O)Nc2ccc(O)cc2C(=O)O)c1
6,44%,O=C(O)C1Cc2c([nH]c3ccccc23)C(c2ccc(Cl)cc2Cl)N1 (stereo not drawn)
